# Test results reported in patent publication US5798447A, “Antibodies specific for D-myo-inositol 1, 4, 5-trisphosphate and the enzyme-linked immunosorbent assay of D-myo-inositol 1, 4, 5-trisphosphate” (The Board of Governors for Higher Education State of Rhode …, priority 1996, dated 1998).
# How the values were obtained:
# [1] = test system: IP3 -C5 -BSA induced antibodies (anti-Ins(1,4,5)P3 antiserum); experiment: Competitive ELISA: immobilized Ins(1,4,5)P3 vs competitor, IP3-C5-BSA induced antiserum; type: binding, New Zealand White rabbit
# Protocol: (§1) New Zealand White female rabbits were immunized with 1 mg of the IP3 -BSA conjugate in 0.5 ml of saline emulsified with an equal volume of Freund's complete adjuvant by five to six subcutaneous injections at the back and both flanks. Booster injections were given with the same amounts of the IP3 -BSA prepared with incomplete Freund's adjuvant at monthly intervals. After the second boost, the animals were bled from the ear vein 2 weeks after each booster injection. The antisera thus prepared were stored at -20° C. until used.
# (§2) The presence of anti-Ins(1,4,5)P3 antibodies in rabbit serum was detected by an ELISA. Ins(1,4,5)P3 (hapten) was covalently attached to microtiter plates through a C-6 linker by adding 6-O-(ω-Aminohexyl)-D-myo-inositol 1,4,5-triphosphate (1) (1.25 μg in 0.1 ml of phosphate buffered saline (PBS) per well) to maleic anhydride-activated polystyrene plates (Pierce). This anhydride-activated plate allows direct coupling of amine-bearing molecules to the well surface, (Pierce Chemical Co. Instruction 15110X (1992) REACTI-BIND™ Maleic Anhydride Activated Polystyrene Plates), and obviates the need for a carrier protein to immobilize haptens. The plate was incubated at room temperature overnight, and each well was blocked by adding 0.12 ml of SUPERBLOCK ™ blocking solution in PBS (Pierce). After 10 minutes at room temperature, the plate was washed twice with 0.05% Tween-20 in 10 mM Tris/HCl containing 0.85% NaCl, pH 7.2 (TBS), followed by TBS buffer twice. Rabbit antiserum (antibodies) diluted in TBS buffer containing 0.1% gelatin was added (95 μl per well). The plate was incubated at 37° C. for 2 hours, and washed as stated above. Specific antibody binding was assessed by adding goat anti-rabbit IgG-HRP conjugate (1/200 dilution in TBS containing 0.1% gelatin; 90 μl per well), and the plate was incubated for another 2 hours at 37° C. After the plate was washed again, the peroxidase substrate solution (90 μl per well) containing 2 mM 2,2'-azinobis(3-ethyl-benzthiazoline-6-sulfonic acid), 2.5 mM hydrogen peroxide, and 50 mM citrate buffer, with a final pH of 5.0, was added. The reaction was incubated at room temperature for 15-20 minutes, and terminated by adding 20 μl of 5% SDS to each well. The absorbance at 415 nm was measured by a microtiter plate reader. Rabbit serum taken before immunization was used as a control in all the assays, from which the absorbance values obtained served as a blank for the correction of experimental data.
# (§3) The avidity and specificity of these antisera were examined by competitive ELISA experiments between immobilized Ins(1,4,5)P3 and various inositol phosphates.
# (§4) Table 1 Avidity of antisera toward various inositol phosphates and
# (§5) PIP2. The avidity is expressed as the concentrations at halfmaximal
# (§6) absorbance (B/Bo = 0.5) in the competitive ELISA experiments.
# [2] = test system: Ins(1,4,5)P3 receptors; conditions: Wilcox et al. 1993, cited from earlier work
# [3] = test system: affinity-purified Ins(1,4,5)P3-specific antibodies (from IP3 -C5 -BSA induced antiserum); experiment: Competitive ELISA with affinity-purified Ins(1,4,5)P3-specific antibodies and inositol phosphates; type: binding, New Zealand White rabbit
# Protocol: as §2
# The antiserum (5.2 ml) was applied to an ECONO-PAC ™ protein A cartridge (5 ml, Bio-Rad) equilibrated with 100 mM Tris/HCl, pH 8.0. The column was washed with, in sequence, 20 ml of the equilibrating buffer, and 25 ml of 10 mM Tris/HCl, pH 8.0. The bound IgG was eluted with 25 ml of 100 mM glycine buffer, pH 3.0, at a flow rate of 0.5 ml/min. Fractions of 1.7 ml were collected in tubes containing 100 μl of 1M Tris/HCl, pH 8.0.
# The dialyzed solution from step 1 was applied to a Ins(1,4,5)IP3 -agarose column (5.8 ml bed volume) equilibrated with 10 mM Tris/HCl, pH 7.5. The column was washed with the equilibration buffer followed by 500 mM NaCl in the same buffer. The absorbed proteins were eluted with, in sequence, 50 ml of 100 mM glycine buffer, pH 3.5, 10 ml of 10 mM Tris/HCl, pH 8.8, and 50 ml of 100 mM NaHCO3 /Na2 CO3 buffer, pH 10.5 Fractions of 1.7 ml were collected. For the eluate with the glycine buffer and with the NaHCO3 /Na2 /CO3 buffer, fractions were collected in tubes containing 100 μl of 1M Tris/HCl, pH 8.0, and 700 μl of 1M Tris/HCl, pH 7.6, respectively.
# Referring to FIG. 2, the displacement curves were generated from competitive ELISA experiments between immobilized (1,4,5)IP3 and various inositol phosphates shown in the insert. The antibodies were preincubated with individual competitors at various concentrations for 30 minutes at room temperature before added to the (1,4,5)IP3 immobilized EIA plates. The assay for the competitive binding was the same as that described for the ELISA under "Experimental Procedures". Percentage total specific binding is expressed by B/Bo, where B=absorbance with competitor and Bo =absorbance without competitor. Each data point represents the means of three determinations. For clarity, the standard deviations were not shown.
# [4] = test system: IP3 -C6 -NC5 -BSA induced antibodies (anti-Ins(1,4,5)P3 antiserum); experiment: Competitive ELISA: immobilized Ins(1,4,5)P3 vs competitor, IP3-C6NC5-BSA induced antiserum; type: binding, New Zealand White rabbit
# Protocol: as §1, §2, §3, §4, §5, §6
structure (smiles),measurement,setting,value
"O=P(O)(O)O[C@H]1[C@H](O)[C@@H](OP(=O)(O)O)[C@H](OP(=O)(O)O)[C@@H](OP(=O)(O)O)[C@H]1O [Ins(1,3,4,5)P4]",binding compared with IP3-C6NC5-BSA induced antiserum,[1]; IP3-C5-BSA induced antibodies,stronger binding
same,IC50,"[1]; IP3-C5-BSA induced antibodies, competitive ELISA, read-out: [Competitor] (M) at half maximal absorbance (B/Bo = 0.5) or IC50",7.1e-08 M
same,"ratio of IC50[Ins(1,3,4,5)P4] to IC50[Ins(1,4,5)P3]",[1]; antiserum against IP3-C5-BSA,2.3
same,"differential affinity, ratio of IC50 values before purification",[1]; antiserum before affinity purification,2 fold
same,"weaker than Ins(1,4,5)P3 at displacing specific [3H]Ins(1,4,5)P3 binding",[2],about 40 fold
same,IC50,"[2]; read-out: IC50 for displacing [3H]Ins(1,4,5)P3 binding from Ins(1,4,5)P3 receptors",762 nM
same,IC50,[3],730 nM
same,"differential affinity, ratio of IC50 values Ins(1,3,4,5)P4 / Ins(1,4,5)P3",[3],60 fold
same,IC50,"[4]; IP3-C6-NC5-BSA induced antibodies, competitive ELISA, read-out: [Competitor] (M) at half maximal absorbance (B/Bo = 0.5) or IC50",2e-07 M
same,"ratio of IC50[Ins(1,3,4,5)P4] to IC50[Ins(1,4,5)P3]",[4]; antiserum against IP3-C6NC5-BSA,2.2
same,"affinity relative to Ins(1,4,5)P3",[4]; both antiserum preparations,one-third of the affinity
